Laboratory results published in PubChem BioAssay AID2060907 (Molecular Pharmacology Branch, DTP, NCI, 2025).

Tested on: 388556-164-R-J1-PDC complex spheroid viability
Experiment: Anticancer human tumor 388556-164-R-J1-PDC patient-derived colon adenocarcinoma cell line growth inhibition [RAS]
Details: for IC50: curve of first compound; for viability, T/C: stronger effect = lower value
Summary of the method: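 Multi-cell-type spheroids: tumor cells plus HUVEC endothelial cells and mesenchymal stem cells. RAS-pathway inhibitors were combined with targeted agents, each dosed in half-log steps down from clinical Cmax, or from 10 microM when Cmax was unknown.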
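Note: spheroids exposed to compound for 7 days before readout.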
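Throughout, for viability, T/C: 100% = DMSO vehicle control luminescence.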

## CC(C)n1nc(-c2ccc3oc(N)nc3c2)c2c(N)ncnc21 + C=CC(=O)N1CCN(c2nc(OCC3CCCN3C)nc3c(F)c(-c4nc(N)cc(C)c4C(F)(F)F)c(Cl)cc23)C(C)C1
Second compound 0.00316 µM
  IC50: 69 nM
Second compound 0.01 µM
  IC50: 74.3 nM
Second compound 0.0316 µM
  IC50: 64.6 nM
Second compound 0.1 µM
  IC50: 77.2 nM
Second compound 0.316 µM
  IC50: 75 nM
Second compound 1 µM
  IC50: 51.4 nM
Second compound 0.00316 µM, first compound 0.000316 µM
  viability, T/C: 102%
Second compound 0.00316 µM, first compound 0.001 µM
  viability, T/C: 98.2%
Second compound 0.00316 µM, first compound 0.00316 µM
  viability, T/C: 91.9%
Second compound 0.00316 µM, first compound 0.01 µM
  viability, T/C: 74.8%
Second compound 0.00316 µM, first compound 0.0316 µM
  viability, T/C: 66.5%
Second compound 0.00316 µM, first compound 0.1 µM
  viability, T/C: 42.7%
Second compound 0.01 µM, first compound 0.000316 µM
  viability, T/C: 100%
Second compound 0.01 µM, first compound 0.001 µM
  viability, T/C: 95.3%
Second compound 0.01 µM, first compound 0.00316 µM
  viability, T/C: 95.3%
Second compound 0.01 µM, first compound 0.01 µM
  viability, T/C: 76.7%
Second compound 0.01 µM, first compound 0.0316 µM
  viability, T/C: 56%
Second compound 0.01 µM, first compound 0.1 µM
  viability, T/C: 47.8%
Second compound 0.0316 µM, first compound 0.000316 µM
  viability, T/C: 104%
Second compound 0.0316 µM, first compound 0.001 µM
  viability, T/C: 95.6%
Second compound 0.0316 µM, first compound 0.00316 µM
  viability, T/C: 80.1%
Second compound 0.0316 µM, first compound 0.01 µM
  viability, T/C: 76%
Second compound 0.0316 µM, first compound 0.0316 µM
  viability, T/C: 59.6%
Second compound 0.0316 µM, first compound 0.1 µM
  viability, T/C: 43.5%
Second compound 0.1 µM, first compound 0.000316 µM
  viability, T/C: 96.2%
Second compound 0.1 µM, first compound 0.001 µM
  viability, T/C: 108%
Second compound 0.1 µM, first compound 0.00316 µM
  viability, T/C: 83.2%
Second compound 0.1 µM, first compound 0.01 µM
  viability, T/C: 84.5%
Second compound 0.1 µM, first compound 0.0316 µM
  viability, T/C: 63%
Second compound 0.1 µM, first compound 0.1 µM
  viability, T/C: 46.1%
Second compound 0.316 µM, first compound 0.000316 µM
  viability, T/C: 99.7%
Second compound 0.316 µM, first compound 0.001 µM
  viability, T/C: 98%
Second compound 0.316 µM, first compound 0.00316 µM
  viability, T/C: 92.2%
Second compound 0.316 µM, first compound 0.01 µM
  viability, T/C: 79.6%
Second compound 0.316 µM, first compound 0.0316 µM
  viability, T/C: 59.4%
Second compound 0.316 µM, first compound 0.1 µM
  viability, T/C: 46.9%
Second compound 1 µM, first compound 0.000316 µM
  viability, T/C: 90.6%
Second compound 1 µM, first compound 0.001 µM
  viability, T/C: 99.9%
Second compound 1 µM, first compound 0.00316 µM
  viability, T/C: 95.2%
Second compound 1 µM, first compound 0.01 µM
  viability, T/C: 81.1%
Second compound 1 µM, first compound 0.0316 µM
  viability, T/C: 55.4%
Second compound 1 µM, first compound 0.1 µM
  viability, T/C: 43.1%
